Data published in the NIST ThermoML archive (doi:10.1021/je401120a).

Assays:
[1] = Liquid; for viscosity / electrical conductivity / speed of sound / mass density: 101 kPa; for electrical conductivity: Crison conductimeter (model GLP31); for speed of sound: Pulse-echo method; for mass density: Vibrating tube method; for vapor or sublimation pressure: Ebulliometric method (Recirculating still)
[2] = refractive index (Na D-line) (dimensionless); conditions: 101.33 kPa, Liquid, Standard Abbe refractometry
[3] = xn = mol fraction of the nth substance listed; conditions: 101 kPa, Liquid, x2 = 0; for speed of sound: Pulse-echo method; for mass density: Vibrating tube method
[4] = refractive index (Na D-line) (dimensionless); xn = mol fraction of the nth substance listed; conditions: 101 kPa, Liquid, Standard Abbe refractometry, x2 = 0

CCC[n+]1ccccc1.F[B-](F)(F)F [1-propylpyridinium tetrafluoroborate]
Conditions | electrical conductivity, [1] [S/m] | mass density, [1] [kg/m3] | refractive index, [2] | speed of sound, [1] [m/s] | viscosity, [1] [mPa·s]
293.15 K | 0.302 | 1256.67 | 1.44588 | 1653.9 | 160
303.15 K | 0.516 | 1249.54 | 1.44322 | 1629.8 | 90.75
313.15 K | 0.799 | 1242.43 | 1.44057 | 1606.3 | 56.02
323.15 K | 1.15 | 1235.31 | 1.43792 | 1583.3 | 36.99

CO [methanol]
Conditions | mass density, [1] [kg/m3] | refractive index, [2] | speed of sound, [1] [m/s] | vapor or sublimation pressure, [1] [kPa] | viscosity, [1] [mPa·s]
293.15 K | 791.243 | 1.32843 | 1118.8 | – | 0.5833
303.15 K | 781.813 | 1.32433 | 1086 | 21.93 | 0.507
313.15 K | 772.287 | 1.32015 | 1053.5 | – | 0.4438
323.15 K | 762.828 | 1.3167 | 1021.5 | 55.78 | 0.3873

CO [methanol] + CCC[n+]1ccccc1.F[B-](F)(F)F
Conditions | mass density, [3] [kg/m3] | refractive index, [4] | speed of sound, [3] [m/s] | viscosity, [3] [mPa·s]
293.15 K | 791.243 | 1.32843 | 1118.8 | 0.5833
303.15 K | 781.813 | 1.32433 | 1086 | 0.507
313.15 K | 772.287 | 1.32015 | 1053.5 | 0.4438
323.15 K | 762.828 | 1.3167 | 1021.5 | 0.3873
